Measured values reported in EP0430029A2, “Pyridin-2,4- and 2,5-dicarboxylic acid diamides, process for their preparation and their use” (HOECHST AKTIENGESELLSCHAFT, priority 1989, dated 1991).

Tested on: durch CCl₄ induzierte Leberfibrose in Ratten
Assay: CCl₄-induced liver fibrosis in rats, 8-week treatment (liver hydroxyproline, serum procollagen III peptide, serum bilirubin)
Format: in vivo
Settings: 8 weeks
Excerpt: Zum Nachweis der effektiven Hemmung der Prolin- und Lysinhydroxylase durch die erfindungsgemäßen Verbindungen wurden die Hydroxyprolin-Konzentrationen in der Leber und die Prokollagen-III-Peptid-Konzentrationen im Serum von • a) unbehandelten Ratten (Kontrolle) • b) Ratten, denen Tetrachlorkohlenstoff verabreicht wurde (CCl₄-Kontrolle) • c) Ratten, denen zunächst CCl₄ und anschließend eine erfindungsgemäße Verbindung verabreicht wurde gemessen (diese Testmethode wird beschrieben von Rouiller, C., experimental toxic injury of the liver; in The Liver, C. Rouiller, Vol. 2, S. 335-476, New York, Academic Press, 1964).
Die Wirkstärke der erfindungsgemäßen Verbindungen wurde als prozentuale Hemmung der Leber-Hydroxyprolin- und Prokollagen-III-Peptidsynthese nach oraler Gabe im Vergleich zu Kontrolltieren, denen nur Tetrachlorkohlenstoff verabreicht wurde (CCl₄-Kontrolle), bestimmt. Die Ergebnisse sind in Tabelle 1 aufgeführt. Tabelle 1

CC(=O)NNC(=O)c1ccnc(C(=O)NNC(C)=O)c1 [Example 1, Pyridin-2,4-dicarbonsäuredi-(methylcarbonylhydrazid)]
Bilirubin (Bilirubin in Serum (total), rats given CCl₄ then compound, daily oral dose 50 mg/kg): 3,0 µM
Hyp (Hydroxyprolin Gehalt in der Leber, rats given CCl₄ then compound, daily oral dose 50 mg/kg): 0,181 µg/ml
PIIIP (Prokollagen III N-peptid im Serum, rats given CCl₄ then compound, daily oral dose 50 mg/kg): 29 ng/mL
Hyp Zunahme (absolut) gegen Kontrolle (liver hydroxyproline, absolute increase versus untreated control, 50 mg/kg oral daily): 0,125 µg/ml
Hyp prozentuale Abnahme gegen CCl₄-Behandlung (liver hydroxyproline, 50 mg/kg oral daily): 27%
Mittelwert: Gesamtgehalt an Bilirubin, PIIIP und Hyp, % Abweichung (mean of the percent decreases of bilirubin, PIIIP and Hyp versus CCl₄ treatment, 50 mg/kg oral daily): (33 ± 13 %)
PIIIP Zunahme (absolut) gegen Kontrolle (serum procollagen III N-peptide, absolute increase versus untreated control, 50 mg/kg oral daily): 18 ng/mL
PIIIP prozentuale Abnahme gegen CCl₄-Behandlung (serum procollagen III N-peptide, 50 mg/kg oral daily): 14%
Bilirubin Zunahme (absolut) gegen Kontrolle (serum total bilirubin, absolute increase versus untreated control, 50 mg/kg oral daily): 1,1 µM
Bilirubin prozentuale Abnahme gegen CCl₄-Behandlung (serum total bilirubin, 50 mg/kg oral daily): 58%
